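How tested: cells in 96-well plates exposed to compound for 48 hours at five concentrations. TGI: concentration producing complete growth inhibition.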
What was measured:
Assay in all cases: NCI anticancer screen, dose series, 48 h
[1] = system: 786-0 renal
[2] = system: A498 renal
[3] = system: A549 NSCLC
[4] = system: ACHN renal
[5] = system: CAKI-1 renal
[6] = system: CCRF-CEM leukemia
[7] = system: COLO 205 colon
[8] = system: DLD-1 colon
[9] = system: DMS 114 small cell lung
[10] = system: DMS 273 small cell lung
[11] = system: EKVX NSCLC
[12] = system: HCC-2998 colon
[13] = system: HCT-116 colon
[14] = system: HCT-15 colon
[15] = system: HL-60(TB) leukemia
[16] = system: HOP-18 NSCLC
[17] = system: HOP-62 NSCLC
[18] = system: HOP-92 NSCLC
[19] = system: HT29 colon
[20] = system: IGROV1 ovarian
[21] = system: K-562 leukemia
[22] = system: KM12 colon
[23] = system: KM20L2 colon
[24] = system: LOX IMVI melanoma
[25] = system: LXFL 529 NSCLC
[26] = system: M14 melanoma
[27] = system: M19-MEL melanoma
[28] = system: MALME-3M melanoma
[29] = system: MOLT-4 leukemia
[30] = system: NCI-H226 lung
[31] = system: NCI-H23 lung
[32] = system: NCI-H460 lung
[33] = system: NCI-H522 lung
[34] = system: OVCAR-3 ovarian
[35] = system: OVCAR-4 ovarian
[36] = system: OVCAR-5 ovarian
[37] = system: OVCAR-8 ovarian
[38] = system: RPMI-8226 leukemia
[39] = system: RXF 393 renal
[40] = system: SF-268 CNS
[41] = system: SF-295 CNS
[42] = system: SF-539 CNS
[43] = system: SK-MEL-2 melanoma
[44] = system: SK-MEL-28 melanoma
[45] = system: SK-MEL-5 melanoma
[46] = system: SK-OV-3 ovarian
[47] = system: SN12C renal
[48] = system: SNB-19 CNS
[49] = system: SNB-75 CNS
[50] = system: SNB-78 CNS
[51] = system: SR leukemia
[52] = system: SW-620 colon
[53] = system: TK-10 renal
[54] = system: U251 CNS
[55] = system: UACC-257 melanoma
[56] = system: UACC-62 melanoma
[57] = system: UO-31 renal
[58] = system: XF 498 CNS
[59] = system: RXF-631 renal

## CC(C)C(=O)N1C(=O)O[C@@H](c2ccccc2)[C@H]1C
[1]
  TGI: > 100 µM
[2]
  TGI: > 100 µM
[3]
  TGI: > 100 µM
[4]
  TGI: > 100 µM
[5]
  TGI: 97.9 µM
[6]
  TGI: > 100 µM
[7]
  TGI: > 100 µM
[8]
  TGI: > 100 µM
[9]
  TGI: > 100 µM
[10]
  TGI: > 100 µM
[11]
  TGI: > 100 µM
[12]
  TGI: > 100 µM
[13]
  TGI: > 100 µM
[14]
  TGI: > 100 µM
[15]
  TGI: > 100 µM
[16]
  TGI: > 100 µM
[17]
  TGI: > 100 µM
[18]
  TGI: > 100 µM
[19]
  TGI: > 100 µM
[20]
  TGI: > 100 µM
[21]
  TGI: > 100 µM
[22]
  TGI: > 100 µM
[23]
  TGI: > 100 µM
[24]
  TGI: > 100 µM
[25]
  TGI: > 100 µM
[26]
  TGI: > 100 µM
[27]
  TGI: > 100 µM
[28]
  TGI: > 100 µM
[29]
  TGI: > 100 µM
[30]
  TGI: > 100 µM
[31]
  TGI: > 100 µM
[32]
  TGI: > 100 µM
[33]
  TGI: > 100 µM
[34]
  TGI: > 100 µM
[35]
  TGI: > 100 µM
[36]
  TGI: > 100 µM
[37]
  TGI: > 100 µM
[38]
  TGI: > 100 µM
[39]
  TGI: > 100 µM
[40]
  TGI: > 100 µM
[41]
  TGI: > 100 µM
[42]
  TGI: > 100 µM
[43]
  TGI: > 100 µM
[44]
  TGI: > 100 µM
[45]
  TGI: > 100 µM
[46]
  TGI: > 100 µM
[47]
  TGI: > 100 µM
[48]
  TGI: > 64.7 µM
[49]
  TGI: > 100 µM
[50]
  TGI: > 100 µM
[51]
  TGI: > 100 µM
[52]
  TGI: > 100 µM
[53]
  TGI: > 100 µM
[54]
  TGI: > 100 µM
[55]
  TGI: > 100 µM
[56]
  TGI: > 100 µM
[57]
  TGI: > 100 µM
[58]
  TGI: > 100 µM

## CCOc1cc2c[n+](C)c3c4cc(OC)c(OC)cc4ccc3c2cc1OC
[1]
  TGI: 35.1 µM
[3]
  TGI: > 100 µM
[4]
  TGI: > 100 µM
[5]
  TGI: > 100 µM
[6]
  TGI: > 100 µM
[7]
  TGI: > 100 µM
[8]
  TGI: > 100 µM
[9]
  TGI: > 100 µM
[11]
  TGI: > 100 µM
[12]
  TGI: > 100 µM
[13]
  TGI: > 100 µM
[14]
  TGI: > 100 µM
[15]
  TGI: > 100 µM
[16]
  TGI: > 100 µM
[17]
  TGI: > 100 µM
[18]
  TGI: > 100 µM
[19]
  TGI: > 100 µM
[20]
  TGI: > 100 µM
[21]
  TGI: > 100 µM
[22]
  TGI: > 100 µM
[23]
  TGI: > 100 µM
[24]
  TGI: > 100 µM
[25]
  TGI: > 100 µM
[26]
  TGI: > 100 µM
[27]
  TGI: > 100 µM
[28]
  TGI: > 100 µM
[29]
  TGI: > 100 µM
[30]
  TGI: > 100 µM
[31]
  TGI: > 100 µM
[32]
  TGI: > 100 µM
[33]
  TGI: > 100 µM
[34]
  TGI: > 100 µM
[35]
  TGI: > 100 µM
[36]
  TGI: > 100 µM
[37]
  TGI: 32.2 µM
[38]
  TGI: > 100 µM
[39]
  TGI: > 100 µM
[59]
  TGI: 40.1 µM
[40]
  TGI: > 100 µM
[41]
  TGI: > 100 µM
[42]
  TGI: > 100 µM
[43]
  TGI: > 100 µM
[44]
  TGI: > 100 µM
[45]
  TGI: > 100 µM
[47]
  TGI: > 100 µM
[48]
  TGI: > 100 µM
[49]
  TGI: > 100 µM
[50]
  TGI: > 100 µM
[51]
  TGI: > 100 µM
[52]
  TGI: > 100 µM
[53]
  TGI: > 100 µM
[54]
  TGI: > 100 µM
[55]
  TGI: > 100 µM
[57]
  TGI: > 100 µM

## Cc1cccc(C)c1NC(=O)CCC(=O)CC(=O)C(C)C
[1]
  TGI: > 100 µM
[2]
  TGI: > 100 µM
[3]
  TGI: > 100 µM
[4]
  TGI: > 100 µM
[5]
  TGI: > 100 µM
[6]
  TGI: > 100 µM
[7]
  TGI: > 100 µM
[8]
  TGI: > 100 µM
[9]
  TGI: > 100 µM
[10]
  TGI: > 100 µM
[11]
  TGI: > 100 µM
[12]
  TGI: > 100 µM
[13]
  TGI: > 100 µM
[14]
  TGI: > 100 µM
[15]
  TGI: > 100 µM
[16]
  TGI: > 100 µM
[17]
  TGI: > 100 µM
[18]
  TGI: > 100 µM
[19]
  TGI: > 100 µM
[20]
  TGI: > 100 µM
[21]
  TGI: > 100 µM
[22]
  TGI: > 100 µM
[23]
  TGI: > 100 µM
[25]
  TGI: > 100 µM
[26]
  TGI: > 100 µM
[27]
  TGI: > 100 µM
[28]
  TGI: > 100 µM
[29]
  TGI: > 100 µM
[30]
  TGI: > 100 µM
[31]
  TGI: > 100 µM
[32]
  TGI: > 100 µM
[33]
  TGI: > 100 µM
[34]
  TGI: > 100 µM
[35]
  TGI: > 100 µM
[36]
  TGI: > 100 µM
[37]
  TGI: > 100 µM
[38]
  TGI: > 100 µM
[39]
  TGI: > 100 µM
[40]
  TGI: > 100 µM
[41]
  TGI: > 100 µM
[42]
  TGI: > 100 µM
[43]
  TGI: > 100 µM
[44]
  TGI: > 100 µM
[45]
  TGI: > 100 µM
[46]
  TGI: > 100 µM
[47]
  TGI: > 100 µM
[48]
  TGI: > 100 µM
[49]
  TGI: > 100 µM
[50]
  TGI: > 100 µM
[51]
  TGI: > 100 µM
[52]
  TGI: > 100 µM
[53]
  TGI: > 100 µM
[54]
  TGI: > 100 µM
[55]
  TGI: > 100 µM
[56]
  TGI: > 100 µM
[57]
  TGI: > 100 µM
[58]
  TGI: > 100 µM

— PubChem BioAssay (NCI)
